Experiments:
[1] = test system: PDAC collagen; assay: Collagen analysis after ex-vivo collagenase treatment of pancreatic tumor slices; parameters: species or system mice; details: PDAC treated with 0.05-0.2 mg/ml collagenase ex-vivo, Masson's trichrome
Method: Collagen analysis after the collagenase treatment. Pancreatic tumors were harvested from tumor bearing mice, six weeks after the initiation of the tumor model. Each tumor was sliced horizontally to 1 cm thick slices. All the extracted slices were mixed and randomly chosen for different treatments groups. Treatments included incubation in DMEM medium (Sigma-Aldrich) with collagenase type-I (Sigma-Aldrich) at increasing concentrations: 0.05, 0.1 or 0.2 mg/ml for either 8 or 24 hours. Following the enzymatic treatment, the tumor slices were sectioned, fixated in 10% formalin (Sigma-Aldrich) and stained with Masson's trichrome. Computerized morphometry was utilized to quantitate the fraction of the fibrotic area out of the total area of the tumor in each sample. Computerized morphometry of the collagen was used to determine fibrosis fraction within each sample. Masson's trichrome staining was performed to identify the pancreatic fibrosis. Then, stained slides were entirely scanned at magnification of X20 using the Panoramic MIDI automatic digital slide scanner (3DHistech, Budapest, Hungary). The whole slide was analyzed in Image Pro Premier 9.2 software (Media Cybernetics, MD, USA). Fibrosis area was calculated according to the blue staining within the tissue, and the tissue area was calculated by choosing the whole tissue with the machine ‘color picker tool’.

[2] = test system: pancreatic tumors; assay: Penetrance of gold nanoparticles after pretreatment of PDAC mice; details: mouse, in vivo
Method: In order to quantify the extent to which encapsulation of collagenase in liposomes improved drug penetrance over free collagenase, PDAC mice were pretreated (intravenous injection twice, 24 hours apart) with empty liposomes, free collagenase or liposome encapsulated collagenase and then 24 hours later gold nanoparticles of various sizes. Specifically, 5, 20, and 100 nm gold nanoparticles were injected and gold penetrance to various organs was monitored 24 hours later. Liposome encapsulated collagenase increased the penetrance of 100 nm (FIG. 6B) and 20 nm (FIG. 6C) gold particles into pancreatic tumors as compared to free collagenase and empty liposomes. […] The experiment was repeated, and more organs/bodily fluids were examined, but similar results were obtained (FIG. 6E-G).

[3] = test system: fibroblasts; assay: Fibroblast adherence to collagen fibers during collagenase treatment; assay type: cell-based; details: during collagenase treatment of the fiber
Method: Fibroblast adherence to collagen fibers. The fibroblast morphological change was recorded using The LSM 710-laser scanning confocal microscope (Zeiss) over a period of 90 minutes. The fibroblasts nuclei were stained using Hoechst 33342 (Thermo Fisher Scientific, MA, USA). The Hoechast 16.23 mM stock solution was diluted 1:2000 in Dulbecco's Phosphate Buffer Saline (DPBS, Sigma-Aldrich, St. Louis, USA) and the collagen fiber buffer was removed. 3 ul of the diluted solution was added, followed by 10 minutes light protected incubation. The staining solution was removed, and the fiber was washed 3 times in PBS.

[4] = test system: PDAC tumors; assay: Effect of the collagenase treatment on pancreatic uptake of Gd-/iodine-liposomes; assay type: in vivo, C57BL/6 mice; details: PDAC mice, Gd-liposomes after pretreatment
Method: Control groups included injections of empty liposomes (n=10 mice), free collagenase (n=5 mice) or no injection at all (n=3 mice) instead of collagenase encapsulating liposomes. […] 24 hours later, the animals were euthanized, and their organs were harvested. The amount of Gadolinium in each organ was analyzed using elemental analysis (ICP-EOS, Agilent) at wavelengths of 335.048 and 342.246 nm. The organs were harvested, weighed and then burnt at 550° C. overnight. The burnt organs were dissolved in 5 ml of 1% nitric-acid and filtered using […] filters (Millipore Millex-GV, Merck, Darmstadt, Germany). The Gd concentration in the organs was measured using an ICP-EOS elemental analysis.
Micro-CT scan. Mice were imaged using an IVIS Spectrum CT Pre-clinical in-vivo imaging system (PerkinElmer, MA, USA) with the following parameters: CT was set to 50 ms, total projections were 720, voltage was set to 50 kV while the current to 1 mA the binning was determined to 2 and the X-ray filter was set to 440 A1. Hounsfield calibration was performed in air-0.004168 and water-0.5513. Two groups of tumors bearing mice (n=5 each) were divided to control and test group. The mice were weighed weekly and tumor progression was monitored by weekly IVIS scans (PerkinElmer). […] Tumor dimensions were assessed using the ROI tool in the IVIS imaging software (Living Image, PerkinElmer).

[5] = test system: human pterygium transplanted to their eyes; assay: Free collagenase I injection to the conjunctiva of mice with transplanted human pterygium; assay type: in vivo; details: 10 mg/ml by injection to the conjunctiva
Method: Pterygium is known to comprise four types of collagen: types I, II, III and IV. The stroma of pterygium and normal conjunctival tissue contains collagen types I, II, and […]. To test the ability of collagenase to break up and treat pterygium, mice that had human pterygium transplanted to their eyes were administered 10 mg/ml free collagenase I by injection to the conjunctiva.

[6] = test system: fluorescein conjugated gelatin substrate
Method: Collagenase activity assay. Collagenase type-I activity was determined using gelatin with fluorescein conjugate as a substrate (ThermoFisher). Collagenase (100 μl) was mixed with 80 μl of reaction buffer (0.05M Tris-HCl, 0.15M NaCl, 5 mM CaCl2, 0.2 mM sodium azide at pH 7.6) and 20 μl of 0.125 mg/ml gelatin diluted in PBS. The fluorescent intensity was measured every 15 seconds over a period of 3 minutes at 485 nm and 530 nm (excitation/emission) using an Infinite 200PRO. Collagenase activity was measured at 37° C., where plasma or PBS served as control.
To test the collagenase activity, liposomal collagenase after dialysis or free collagenase in phosphate buffered saline at a concentration of 5 ug/ml, were incubated at 37° C. Every hour, a collagenase sample was assessed for its capacity to cleave a fluorescein conjugated gelatin substrate (Thermo Fisher). Activity of the released collagenase was determined in accordance to the change in fluorescence over 3 minutes, relative to the fluorescence at t=0.
In order to quantify the protective nature of liposome encapsulation versus free collagenase, both free enzyme and encapsulated enzyme were incubated in PBS or serum and protein activity was measured by Enzcheck Assay at 0, 1, 6 and 24 hours.

[7] = test system: fluorescein conjugated gelatin; assay: Collagenase activity test in various conditions (temperature, ethanol, pH, extrusion pressure); assay type: biochemical
Method: Collagenase activity assay. Collagenase activity was assessed using fluorescein conjugated gelatin (ThermoFisher) as a substrate. The enzyme solution was added to the substrate solution together with a reaction buffer (0.5 M Tris-HCl, 1.5 M NaCl, 50 mM CaCl2, 2 mM sodium azide, pH 7.6). Fluorescence intensity for every sample was measured every 15 seconds for 3 minutes with excitation set at 485 nm and emission at 530 nm using the Infinite 200 PRO multimode reader (TECAN, Mannedorf, Switzerland). A linear incline was determined, and collagenase concentration was calculated using a calibration curve generated by collagenase samples of known concentrations.
Having established that collagenase's activity drops rapidly at 37 degrees (FIG. 7B), other parameters during liposome production that might affect the protein's integrity and function were examined.
Lastly, the activity of free collagenase at various pH was assayed.

[8] = test system: Wistar rats; details: rat, in vivo
Method: All rats were anesthetized in two stages. In the first stage the rats were anesthetized with isoflurane. In the second stage each rat was injected a mixture of Ketamine and Xylazine intraperitoneally. After each procedure, the rats were transferred and kept in an incubator, with constant oxygen flow, until they reached full recovery.
An ordinary orthodontic Ni—Ti closed coil spring (9 mm closed coil spring nickel and titanium alloy that has 2 eyelets with an inner radius of 0.76 mm) was used to connect the 1st molar in the upper pallet to the front upper incisors of the rat. The Ni—Ti coil spring was glued to the tooth (3M UNITEK), which generates constant force of 200 grams (1.96 N) when extended between 12-24 mm. The force applied in the oral cavity was the same on all the rats that participated in the experiment. […] The procedure of installing the Ni—Ti coil closed spring was performed using human orthodontics equipment and materials. The 1st upper molar and the upper incisors were dried and cleaned using cotton swabs to remove any debris that accumulates. […]
Collagenase-liposomes (see above Liposome Preparation), or a similar concentration of free collagenase, were applied directly to the sulcus. […] The distance between the eyelet of the Ni—Ti closed coil on the first molar and the back of the upper incisors was measured and recorded using the digital caliper. […]

[9] = test system: Collagen type-I bundles; assay: Stress/strength profile of collagen fibers exposed to proteolytic enzymes; assay type: biochemical, Wistar rats
Method: Stress/strength profile of collagen fibers exposed to collagenase: Collagen type-I bundles, sourced from the tails of Wistar rats, were suspended using a LLOYD LF-Plus Digital Material Tester force machine. The bundles were suspended inside a bath loaded with a buffer that simulates the composition of the oral fluid: an isotonic solution, pH 6.7 at 37° C. complemented with electrolytes including sodium, potassium, calcium, magnesium, bicarbonate, and phosphates. The bundles, 0.8-1.2 mm in diameter, were cut into two equal 4-cm sections, acting as an internal control. Collagenase type-I from Clostridium histolyticum (Sigma-Aldrich) was added at different concentrations and the stress/strength profile of the collagen fibers was recorded as a function of the collagenase treatment. The Ultimate Tensile Strength (UTS) of the collagen bundle was determined for each collagenase concentration.
Collagen regeneration SEM. Collagen bundles were mounted on carbon tape and imaged using a Zeiss UltraPlus high-resolution scanning electron microscope (HR-SEM) equipped with an Everhart-Thornley secondary electron detector. Each bundle was then cut in half. The untreated half acted as an internal control for each treated bundle. All data points are the mean of 14-20 experimental points. Collagen fibers were exposed to 0.05 mg/ml collagenase for 8 hours. Ethylenediaminetetraacetic acid (EDTA; ST. Louis, USA), 3 mM along with two drops of NH4Cl 1M buffer, were added for 30 minutes in order to retard the enzyme's activity. Subsequently, the media was removed, and the treated bundles were washed two times with new growth media to allow bundle regeneration.
Collagen fibers regain their initial mechanical strength post nano-surgery. Collagen fibers were sourced from tails of Wistar rats. Each bundle was cut in half. The untreated half acted as an internal control for each treated bundle. All presented data points are the mean of 14-20 experimental points. Collagen fibers were exposed to collagenase at concentration of 0.05 mg/ml for 8 hours in order to weaken the bundles. […] Subsequently, the media was removed, and the treated bundles were washed twice with new growth media.
Two plant-based proteolytic enzymes were also tested for their ability to relax collagen: bromelain and papain. These plant-based enzymes are not specific to collagen but have been reported to act on collagen fibers. Collagens fiber strength was tested with a force machine in the presence of 1 mg/ml collagenase, bromelain or papain. The force required to break a bundle of fibers with no treatment was set to 1, and the force required to break the treated fiber bundles was standardized to this force. […] At this same time point bromelain and papain reduced the strength of the collagen fibers such that less than 70% of the control force was needed to rupture the fibers. […] Thus, both papain and bromelain served as effective collagen relaxing enzymes, though much weaker ones than […].

level of fibrotic tissue [1]: 1.28±0.3% | half-life of collagenase once activated [6]: several hours | force needed to rupture the fibers, standardized to control force ([9]; 1 mg/ml, 4 hours of treatment): almost no force | time to degrade the collagen fibers ([9]; 0.5 and 1 mg/mL collagenase): less than 10 hours | initial strength profile regained by collagen fibers ([9]; after the collagenase activity was retarded (16 h)): ~90% | decrease of collagen fiber strength ([9]; therapeutic dose of collagenase (0.05 mg/ml, 8 h)): approximately 50%
Substance: collagenase
penetrance of 5 nm particles into tumors [2]: decreased penetrance | fibroblast detachment and viability [3]: fibroblast viability was retained | pancreatic uptake by elemental analysis of Gd [4]: 15.1 μg-Gd/g-pancreas | effect on the eye [5]: general breakdown of the eye, with extreme inflammation and damage seen throughout the eye | activity of free collagenase at various pH [7]: Basic pH was found to result in improved collagenase activity | activity of free enzyme versus temperature ([7]; 50 degrees or greater): completely abrogated protein function | activity of free enzyme in ethanol ([7]; as little as 20% ethanol): completely abrogated protein function | protein activity versus ethanol during liposome production ([7]; ethanol procedure): Inclusion of any amount of ethanol was also found to denature the protein and reduce its activity | protein activity versus extrusion force ([7]; ethanol procedure): a force above 10 bar during extrusion was found to have a negative effect on protein activity | protein activity versus temperature during liposome production ([7]; ethanol procedure): temperatures above 25 began reducing protein activity | inflammation of the gingival tissue (histology) [8]: mild inflammation | therapeutic window: fibers relaxed but not fully degraded ([9]; oral physiological conditions): 0.05 to 0.1 mg/mL

Reference: US11992557B2, “Collagenase loaded liposomes for enhancing drug delivery” (TECHNION RESEARCH & DEVELOPMENT FOUNDATION LIMITED, priority 2018, dated 2024)
